The kinase profiling compilation of Christmann-Franck et al. (2016)

How the values were obtained:
Assay in all cases: radiometric filter-binding kinase assay, Kinase HotSpot
Details in all cases: compound 0.5 µM; ATP 10 µM
LRRK2 (human) = LRRK2 (human) (UniProt Q5S007)
BRSK2 (human) = BRSK2 (human) (UniProt Q8IWQ3)
PTK2 (human) = PTK2 (human) (UniProt Q05397)
GRK7 (human) = GRK7 (human) (UniProt Q8WTQ7)
NEK2 (human) = NEK2 (human) (UniProt P51955)
ADRBK2 (human) = ADRBK2 (human) (UniProt P35626)
MELK (human) = MELK (human) (UniProt Q14680)
EPHA1 (human) = EPHA1 (human) (UniProt P21709)
PTK2B (human) = PTK2B (human) (UniProt Q14289)
TBK1 (human) = TBK1 (human) (UniProt Q9UHD2)
MARK3 (human) = MARK3 (human) (UniProt P27448)
[1] = system: MAP2K6 (human), P52564 [S207E/T211E]
[2] = system: FLT4 (human), P35916 [Q890H]
CHEK2 (human) = CHEK2 (human) (UniProt O96017)
MAP3K5 (human) = MAP3K5 (human) (UniProt Q99683)
PIM1 (human) = PIM1 (human) (UniProt P11309)
CLK1 (human) = CLK1 (human) (UniProt P49759)
ROCK2 (human) = ROCK2 (human) (UniProt O75116)
TEC (human) = TEC (human) (UniProt P42680)
LTK (human) = LTK (human) (UniProt P29376)
PRKCI (human) = PRKCI (human) (UniProt P41743)
PNCK (human) = PNCK (human) (UniProt Q6P2M8)
EPHA4 (human) = EPHA4 (human) (UniProt P54764)
MAPK11 (human) = MAPK11 (human) (UniProt Q15759)
ADRBK1 (human) = ADRBK1 (human) (UniProt P25098)
CDK5 CDK5R1 p25 (human) = CDK5 CDK5R1 p25 (human) (UniProt Q00535+Q15078)
STK39 (human) = STK39 (human) (UniProt Q9UEW8)
RAF1 (human) = RAF1 (human) (UniProt P04049)
NEK7 (human) = NEK7 (human) (UniProt Q8TDX7)
CDK2 CCNE1 (human) = CDK2 CCNE1 (human) (UniProt P24941+P24864)
CDK6 CCND1 (human) = CDK6 CCND1 (human) (UniProt Q00534+P24385)
WNK2 (human) = WNK2 (human) (UniProt Q9Y3S1)
CDK1 CCNA2 (human) = CDK1 CCNA2 (human) (UniProt P06493+P20248)
CSNK1G1 (human) = CSNK1G1 (human) (UniProt Q9HCP0)
MARK4 (human) = MARK4 (human) (UniProt Q96L34)
PDPK1 (human) = PDPK1 (human) (UniProt O15530)
RPS6KB2 (human) = RPS6KB2 (human) (UniProt Q9UBS0)
FYN (human) = FYN (human) (UniProt P06241)
ROS1 (human) = ROS1 (human) (UniProt P08922)
MINK1 (human) = MINK1 (human) (UniProt Q8N4C8)
MAPK9 (human) = MAPK9 (human) (UniProt P45984)
TYRO3 (human) = TYRO3 (human) (UniProt Q06418)

Chain of CDK5 CDK5R1 p25 (human) (Q00535 whole entry, looked up): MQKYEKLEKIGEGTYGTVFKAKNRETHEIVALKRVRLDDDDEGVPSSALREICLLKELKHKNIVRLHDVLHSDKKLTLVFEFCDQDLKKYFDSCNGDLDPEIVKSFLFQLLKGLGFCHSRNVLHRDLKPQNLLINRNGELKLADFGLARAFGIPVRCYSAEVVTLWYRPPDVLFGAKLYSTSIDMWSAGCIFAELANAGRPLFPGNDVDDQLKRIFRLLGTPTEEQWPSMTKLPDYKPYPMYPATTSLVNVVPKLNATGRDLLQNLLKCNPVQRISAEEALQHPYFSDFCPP
Chain of CDK5 CDK5R1 p25 (human) (Q15078 whole entry, looked up): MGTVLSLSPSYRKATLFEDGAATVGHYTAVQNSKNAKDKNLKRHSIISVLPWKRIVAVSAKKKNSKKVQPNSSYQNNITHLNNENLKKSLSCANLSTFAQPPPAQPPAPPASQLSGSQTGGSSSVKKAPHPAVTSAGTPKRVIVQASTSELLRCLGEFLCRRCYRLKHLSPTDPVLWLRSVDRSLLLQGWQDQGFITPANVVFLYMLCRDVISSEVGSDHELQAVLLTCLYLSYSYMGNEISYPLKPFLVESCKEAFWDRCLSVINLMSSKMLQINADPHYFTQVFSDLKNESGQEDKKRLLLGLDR
Chain of PTK2B (human) (Q14289 whole entry, looked up): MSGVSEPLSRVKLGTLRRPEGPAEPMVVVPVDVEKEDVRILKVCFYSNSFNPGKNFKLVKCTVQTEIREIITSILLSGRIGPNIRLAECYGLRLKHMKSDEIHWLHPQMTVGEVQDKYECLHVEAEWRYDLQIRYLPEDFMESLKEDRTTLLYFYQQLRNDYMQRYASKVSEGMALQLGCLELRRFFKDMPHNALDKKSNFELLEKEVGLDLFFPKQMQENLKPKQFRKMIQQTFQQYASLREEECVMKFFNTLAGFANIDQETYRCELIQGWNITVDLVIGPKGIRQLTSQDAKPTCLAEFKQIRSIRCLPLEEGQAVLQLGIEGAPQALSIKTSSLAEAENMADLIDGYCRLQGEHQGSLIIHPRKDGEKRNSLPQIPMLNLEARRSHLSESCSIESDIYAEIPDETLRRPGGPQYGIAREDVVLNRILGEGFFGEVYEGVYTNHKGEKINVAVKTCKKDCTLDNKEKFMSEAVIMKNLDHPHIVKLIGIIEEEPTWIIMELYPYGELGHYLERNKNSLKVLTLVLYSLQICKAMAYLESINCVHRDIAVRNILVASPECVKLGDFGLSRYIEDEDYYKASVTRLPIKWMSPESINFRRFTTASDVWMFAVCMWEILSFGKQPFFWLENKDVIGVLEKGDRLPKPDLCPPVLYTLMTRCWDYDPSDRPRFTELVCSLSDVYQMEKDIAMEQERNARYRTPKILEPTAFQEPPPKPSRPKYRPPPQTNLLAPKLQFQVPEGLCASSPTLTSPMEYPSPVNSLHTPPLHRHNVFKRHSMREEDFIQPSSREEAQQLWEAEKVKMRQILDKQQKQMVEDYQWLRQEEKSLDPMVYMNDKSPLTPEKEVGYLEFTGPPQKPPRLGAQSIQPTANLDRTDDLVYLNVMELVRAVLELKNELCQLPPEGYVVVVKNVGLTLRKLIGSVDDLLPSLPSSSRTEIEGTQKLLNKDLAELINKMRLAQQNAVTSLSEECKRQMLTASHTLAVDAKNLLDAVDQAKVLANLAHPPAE
Chain of ADRBK2 (human) (P35626 whole entry, looked up): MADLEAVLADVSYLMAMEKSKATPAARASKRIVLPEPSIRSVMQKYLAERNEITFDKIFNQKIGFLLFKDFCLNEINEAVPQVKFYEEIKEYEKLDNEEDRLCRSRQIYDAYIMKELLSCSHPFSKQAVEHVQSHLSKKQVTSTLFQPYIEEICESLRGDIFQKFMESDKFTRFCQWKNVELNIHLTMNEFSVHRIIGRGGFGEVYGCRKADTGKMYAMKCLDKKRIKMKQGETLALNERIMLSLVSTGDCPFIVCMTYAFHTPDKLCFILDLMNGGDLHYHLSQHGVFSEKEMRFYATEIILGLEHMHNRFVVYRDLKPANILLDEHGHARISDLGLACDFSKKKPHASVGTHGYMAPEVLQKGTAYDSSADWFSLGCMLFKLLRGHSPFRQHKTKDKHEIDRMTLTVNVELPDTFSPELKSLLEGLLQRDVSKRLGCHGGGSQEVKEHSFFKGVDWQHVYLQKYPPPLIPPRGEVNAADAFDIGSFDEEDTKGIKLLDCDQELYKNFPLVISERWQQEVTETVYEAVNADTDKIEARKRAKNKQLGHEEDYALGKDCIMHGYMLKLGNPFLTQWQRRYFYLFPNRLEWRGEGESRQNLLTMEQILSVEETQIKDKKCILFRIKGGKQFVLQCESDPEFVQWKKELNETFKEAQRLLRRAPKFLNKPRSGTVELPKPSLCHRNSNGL
Chain of CHEK2 (human) (O96017 whole entry, looked up): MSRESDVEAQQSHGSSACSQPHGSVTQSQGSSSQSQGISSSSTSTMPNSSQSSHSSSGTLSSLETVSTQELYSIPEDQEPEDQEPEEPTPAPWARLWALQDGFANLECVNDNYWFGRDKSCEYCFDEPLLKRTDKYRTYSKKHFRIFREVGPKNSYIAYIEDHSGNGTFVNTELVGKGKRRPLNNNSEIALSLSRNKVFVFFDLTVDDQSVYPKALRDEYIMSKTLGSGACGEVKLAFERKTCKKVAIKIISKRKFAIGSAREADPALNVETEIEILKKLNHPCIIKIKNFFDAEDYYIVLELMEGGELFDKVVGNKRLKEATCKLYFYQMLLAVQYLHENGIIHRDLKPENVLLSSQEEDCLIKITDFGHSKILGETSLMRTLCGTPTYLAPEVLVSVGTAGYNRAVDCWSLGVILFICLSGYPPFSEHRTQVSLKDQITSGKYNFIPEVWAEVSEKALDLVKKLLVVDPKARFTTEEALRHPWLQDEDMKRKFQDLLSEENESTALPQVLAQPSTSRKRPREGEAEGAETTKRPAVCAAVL
Chain of PTK2 (human) (Q05397 whole entry, looked up): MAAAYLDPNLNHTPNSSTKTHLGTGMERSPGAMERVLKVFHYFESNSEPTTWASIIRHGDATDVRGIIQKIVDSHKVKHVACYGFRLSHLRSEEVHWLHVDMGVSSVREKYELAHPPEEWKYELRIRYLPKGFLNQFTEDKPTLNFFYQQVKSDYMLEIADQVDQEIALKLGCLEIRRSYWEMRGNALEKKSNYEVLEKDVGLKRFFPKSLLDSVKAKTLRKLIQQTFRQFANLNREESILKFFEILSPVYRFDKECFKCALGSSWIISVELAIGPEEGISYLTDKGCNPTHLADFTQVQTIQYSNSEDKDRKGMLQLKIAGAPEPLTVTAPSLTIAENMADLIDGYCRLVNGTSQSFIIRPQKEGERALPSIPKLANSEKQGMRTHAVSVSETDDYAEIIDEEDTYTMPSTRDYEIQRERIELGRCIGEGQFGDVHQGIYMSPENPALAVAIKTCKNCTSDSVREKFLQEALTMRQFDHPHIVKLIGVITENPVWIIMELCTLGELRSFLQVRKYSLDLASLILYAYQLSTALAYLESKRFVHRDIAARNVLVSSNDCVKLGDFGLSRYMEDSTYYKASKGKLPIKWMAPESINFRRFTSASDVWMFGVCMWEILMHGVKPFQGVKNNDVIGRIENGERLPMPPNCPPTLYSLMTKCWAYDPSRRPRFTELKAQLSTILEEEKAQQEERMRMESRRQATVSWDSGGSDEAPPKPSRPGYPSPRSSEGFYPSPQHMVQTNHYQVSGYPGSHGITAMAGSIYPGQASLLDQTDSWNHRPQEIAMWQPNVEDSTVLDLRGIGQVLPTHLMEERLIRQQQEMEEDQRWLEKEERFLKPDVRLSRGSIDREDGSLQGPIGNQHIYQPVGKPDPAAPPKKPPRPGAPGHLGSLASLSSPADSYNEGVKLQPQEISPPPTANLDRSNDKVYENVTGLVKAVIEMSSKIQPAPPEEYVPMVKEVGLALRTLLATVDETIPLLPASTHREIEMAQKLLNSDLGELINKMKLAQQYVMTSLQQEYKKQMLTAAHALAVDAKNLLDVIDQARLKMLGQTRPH
Chain of MAPK11 (human) (Q15759 whole entry, looked up): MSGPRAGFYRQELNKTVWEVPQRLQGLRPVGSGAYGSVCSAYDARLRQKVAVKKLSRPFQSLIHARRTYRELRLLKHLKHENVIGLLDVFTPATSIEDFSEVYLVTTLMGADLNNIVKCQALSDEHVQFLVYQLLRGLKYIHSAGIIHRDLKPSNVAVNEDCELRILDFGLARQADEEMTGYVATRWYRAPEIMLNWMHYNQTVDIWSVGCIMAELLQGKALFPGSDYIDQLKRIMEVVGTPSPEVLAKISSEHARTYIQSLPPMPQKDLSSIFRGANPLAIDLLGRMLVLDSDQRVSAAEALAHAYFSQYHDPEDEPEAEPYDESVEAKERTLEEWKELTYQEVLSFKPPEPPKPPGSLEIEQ
Chain of MARK4 (human) (Q96L34 whole entry, looked up): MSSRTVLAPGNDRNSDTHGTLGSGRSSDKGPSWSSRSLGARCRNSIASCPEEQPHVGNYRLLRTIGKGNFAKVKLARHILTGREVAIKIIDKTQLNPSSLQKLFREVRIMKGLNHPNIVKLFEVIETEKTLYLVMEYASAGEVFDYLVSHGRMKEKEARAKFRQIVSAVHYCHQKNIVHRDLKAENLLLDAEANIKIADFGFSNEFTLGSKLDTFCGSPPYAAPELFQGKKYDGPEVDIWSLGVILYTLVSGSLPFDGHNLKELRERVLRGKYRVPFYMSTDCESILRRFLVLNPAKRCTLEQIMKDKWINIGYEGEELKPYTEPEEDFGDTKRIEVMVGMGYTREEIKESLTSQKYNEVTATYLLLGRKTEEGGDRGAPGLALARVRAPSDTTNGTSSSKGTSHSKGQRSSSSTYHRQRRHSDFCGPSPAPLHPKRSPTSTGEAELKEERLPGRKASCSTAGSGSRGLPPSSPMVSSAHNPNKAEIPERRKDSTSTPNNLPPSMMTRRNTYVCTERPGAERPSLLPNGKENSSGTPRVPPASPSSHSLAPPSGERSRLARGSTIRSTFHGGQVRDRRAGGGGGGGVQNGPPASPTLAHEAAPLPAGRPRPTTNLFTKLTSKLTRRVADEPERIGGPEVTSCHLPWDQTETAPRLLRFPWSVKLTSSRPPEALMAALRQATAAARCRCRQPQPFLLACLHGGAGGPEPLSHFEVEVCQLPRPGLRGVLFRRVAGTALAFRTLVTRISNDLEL

Row | SMILES | residual activity (LRRK2 (human)) [%] | residual activity (BRSK2 (human)) [%] | residual activity (PTK2 (human)) [%] | residual activity (GRK7 (human)) [%] | residual activity (ADRBK2 (human)) [%] | residual activity (MELK (human)) [%] | residual activity (EPHA1 (human)) [%] | residual activity (TBK1 (human)) [%] | residual activity (MARK3 (human)) [%] | residual activity [1] [%] | residual activity [2] [%] | residual activity (CHEK2 (human)) [%] | residual activity (MAP3K5 (human)) [%] | residual activity (PIM1 (human)) [%] | residual activity (ROCK2 (human)) [%] | residual activity (TEC (human)) [%] | residual activity (PRKCI (human)) [%] | residual activity (PNCK (human)) [%] | residual activity (EPHA4 (human)) [%] | residual activity (MAPK11 (human)) [%] | also measured
1 | NC(=O)c1cccc(-c2cc(Nc3ccc(OC(F)(F)F)cc3)ncn2)c1 | 108 | 93 | 100 | 97.1 | 80.5 | 94.5 | 90.1 | 92.4 | 100 | 101 | 98.5 | 101 | 90.3 | 101 | 98.5 | 139 | 99.6 | 109 | 94.4 | 105 | residual activity (NEK2 (human)): 95.6%; residual activity (PTK2B (human)): 94.6%; residual activity (CLK1 (human)): 115%; residual activity (LTK (human)): 111%; residual activity (ADRBK1 (human)): 96.1%; residual activity (CDK5 CDK5R1 p25 (human)): 80.1%; residual activity (STK39 (human)): 85.5%; residual activity (RAF1 (human)): 105%; residual activity (NEK7 (human)): 96.3%; residual activity (CDK2 CCNE1 (human)): 86.6%; residual activity (CDK6 CCND1 (human)): 99.1%; residual activity (WNK2 (human)): 115%; residual activity (CDK1 CCNA2 (human)): 103%; residual activity (CSNK1G1 (human)): 97.8%; residual activity (MARK4 (human)): 98.1%; residual activity (PDPK1 (human)): 98.3%; residual activity (RPS6KB2 (human)): 102%
2 | COc1cc(Nc2c(C#N)cnc3cc(OCCCN4CCN(C)CC4)c(OC)cc23)c(Cl)cc1Cl | 30.1 | 94.2 | 96 | 101 | 99.2 | 25.8 | 97.7 | 65.7 | 65.4 | 93.4 | 44.1 | 21.7 | 95.7 | 99.2 | 85 | 96.1 | 99.4 | 109 | 27 | 101 | residual activity (NEK2 (human)): 8.56%; residual activity (FYN (human)): 29.4%; residual activity (PTK2B (human)): 32.6%; residual activity (CLK1 (human)): 81%; residual activity (LTK (human)): 57.7%; residual activity (ADRBK1 (human)): 97.3%; residual activity (CDK5 CDK5R1 p25 (human)): 95.9%; residual activity (STK39 (human)): 93.6%; residual activity (ROS1 (human)): 95.4%; residual activity (RAF1 (human)): 105%; residual activity (MINK1 (human)): 1.21%; residual activity (NEK7 (human)): 94.6%; residual activity (CDK2 CCNE1 (human)): 98.3%; residual activity (CDK6 CCND1 (human)): 99.4%; residual activity (WNK2 (human)): 94.2%; residual activity (CDK1 CCNA2 (human)): 96.9%; residual activity (CSNK1G1 (human)): 95.7%; residual activity (MARK4 (human)): 60.6%; residual activity (PDPK1 (human)): 89.8%; residual activity (RPS6KB2 (human)): 107%
3 | CO[C@@H]1[C@H](N(C)C(=O)c2ccccc2)C[C@H]2O[C@]1(C)n1c3ccccc3c3c4c(c5c6ccccc6n2c5c31)C(=O)NC4 | 8.46 | 16.4 | 87.4 | 15.5 | 97.5 | 4.87 | 93.5 | 3.22 | 4.76 | 91.4 | 10.9 | 85.1 | 101 | 41.2 | 80.9 | 106 | 96.4 | 92.9 | 96.9 | 97.6 | residual activity (MAPK9 (human)): 82.7%; residual activity (NEK2 (human)): 101%; residual activity (TYRO3 (human)): 98.8%; residual activity (FYN (human)): 34%; residual activity (PTK2B (human)): 58.2%; residual activity (LTK (human)): 50.1%; residual activity (ADRBK1 (human)): 102%; residual activity (CDK5 CDK5R1 p25 (human)): 73.3%; residual activity (STK39 (human)): 96%; residual activity (ROS1 (human)): 6.53%; residual activity (RAF1 (human)): 114%; residual activity (MINK1 (human)): 29.2%; residual activity (NEK7 (human)): 101%; residual activity (CDK2 CCNE1 (human)): 81.2%; residual activity (CDK6 CCND1 (human)): 96.5%; residual activity (WNK2 (human)): 111%; residual activity (CSNK1G1 (human)): 103%; residual activity (MARK4 (human)): 3.16%; residual activity (PDPK1 (human)): 21.8%; residual activity (RPS6KB2 (human)): 55.9%
4 | COc1ccc2c(c1)/C(=C/c1cnc[nH]1)C(O)=N2 | 27.9 | 61.7 | 87.9 | 99.7 | 101 | 36.5 | 97.3 | 70.7 | 56.2 | 90.1 | 66.4 | 77.9 | 103 | 90.8 | 87.4 | 91.6 | 96.9 | 86.3 | 98.2 | 103 | residual activity (MAPK9 (human)): 101%; residual activity (TYRO3 (human)): 99.2%; residual activity (FYN (human)): 81.2%; residual activity (CLK1 (human)): 87.3%; residual activity (LTK (human)): 93.6%; residual activity (ADRBK1 (human)): 107%; residual activity (CDK5 CDK5R1 p25 (human)): 4.52%; residual activity (STK39 (human)): 86.1%; residual activity (ROS1 (human)): 91.1%; residual activity (RAF1 (human)): 98.3%; residual activity (MINK1 (human)): 57.9%; residual activity (CDK6 CCND1 (human)): 13.3%; residual activity (WNK2 (human)): 102%; residual activity (CDK1 CCNA2 (human)): 43.7%; residual activity (CSNK1G1 (human)): 106%; residual activity (MARK4 (human)): 37.4%; residual activity (PDPK1 (human)): 97.8%; residual activity (RPS6KB2 (human)): 98.7%
5 | C[C@@H]1CCN(C(=O)CC#N)C[C@@H]1N(C)c1ncnc2[nH]ccc12 | 51.3 | 86.9 | 103 | 102 | 99.2 | 79.4 | 98 | 92.5 | 78.6 | 99.4 | 97.5 | 104 | 97.8 | 102 | 69.9 | 95.4 | 103 | 104 | 99.1 | 103 | residual activity (MAPK9 (human)): 112%; residual activity (NEK2 (human)): 103%; residual activity (TYRO3 (human)): 103%; residual activity (CLK1 (human)): 99.5%; residual activity (ADRBK1 (human)): 95.3%; residual activity (CDK5 CDK5R1 p25 (human)): 100%; residual activity (STK39 (human)): 95.1%; residual activity (ROS1 (human)): 94.1%; residual activity (RAF1 (human)): 95.5%; residual activity (MINK1 (human)): 100%; residual activity (CDK2 CCNE1 (human)): 90.7%; residual activity (CDK6 CCND1 (human)): 96.5%; residual activity (WNK2 (human)): 101%; residual activity (CDK1 CCNA2 (human)): 95.9%; residual activity (CSNK1G1 (human)): 101%; residual activity (MARK4 (human)): 81.7%; residual activity (PDPK1 (human)): 94.1%; residual activity (RPS6KB2 (human)): 100%
